Assay results reported in ChEMBL document CHEMBL5723584 (2023).
Active and inactive are the calls of the source. The rule behind the calls is not given here.

Tests used:
[1] = target: Ephrin type-A receptor 8 (Homo sapiens) (UniProt P29322); test: activity of EphA8(h) at 1.0 µM in the Eurofins Kinase panel; conditions: Compound concentration 1.0 uM
[2] = target: Tyrosine-protein kinase CSK (Homo sapiens) (UniProt P41240); test: activity of CSK(h) at 1.0 µM in the Eurofins Kinase panel; conditions: Compound concentration 1.0 uM
[3] = target: Fibroblast growth factor receptor 1 (Homo sapiens) (UniProt P11362); test: activity of FGFR1(h) at 1.0 µM in the Eurofins Kinase panel; conditions: Compound concentration 1.0 uM
[4] = target: Focal adhesion kinase 1 (Homo sapiens) (UniProt Q05397); test: activity of FAK(h) at 1.0 µM in the Eurofins Kinase panel; conditions: Compound concentration 1.0 uM
[5] = target: Protein kinase C zeta type (Homo sapiens) (UniProt Q05513); test: activity of PKCzeta(h) at 1.0 µM in the Eurofins Kinase panel; conditions: Compound concentration 1.0 uM
[6] = target: Serine/threonine-protein kinase Nek1 (Homo sapiens) (UniProt Q96PY6); test: activity of NEK1(h) at 1.0 µM in the Eurofins Kinase panel; conditions: Compound concentration 1.0 uM
[7] = target: Calcium/calmodulin-dependent protein kinase type 1 (Homo sapiens) (UniProt Q14012); test: activity of CaMKI(h) at 1.0 µM in the Eurofins Kinase panel; conditions: Compound concentration 1.0 uM
[8] = target: Myosin light chain kinase 2, skeletal/cardiac muscle (Homo sapiens) (UniProt Q9H1R3); test: activity of MYLK2(h) at 1.0 µM in the Eurofins Kinase panel; conditions: Compound concentration 1.0 uM
[9] = target: Inhibitor of nuclear factor kappa-B kinase subunit epsilon (Homo sapiens) (UniProt Q14164); test: activity of IKKepsilon(h) at 1.0 µM in the Eurofins Kinase panel; conditions: Compound concentration 1.0 uM
[10] = target: CDC7/Cyclin B1 (Homo sapiens) (UniProt P14635+O00311); test: activity of Cdc7/cyclinB1(h) at 1.0 µM in the Eurofins Kinase panel; type: protein-complex assay; conditions: Compound concentration 1.0 uM
[11] = target: STE20/SPS1-related proline-alanine-rich protein kinase (Homo sapiens) (UniProt Q9UEW8); test: activity of STK39(h) at 1.0 µM in the Eurofins Kinase panel; conditions: Compound concentration 1.0 uM
[12] = target: Serine/threonine-protein kinase A-Raf (Homo sapiens) (UniProt P10398); test: activity of A-Raf(h) at 1.0 µM in the Eurofins Kinase panel; conditions: Compound concentration 1.0 uM
[13] = target: G protein-coupled receptor kinase 3 (Homo sapiens) (UniProt P35626); test: activity of GRK3(h) at 1.0 µM in the Eurofins Kinase panel; conditions: Compound concentration 1.0 uM
[14] = target: Serine/threonine-protein kinase TBK1 (Homo sapiens) (UniProt Q9UHD2); test: activity of TBK1(h) at 1.0 µM in the Eurofins Kinase panel; conditions: Compound concentration 1.0 uM
[15] = target: Serine/threonine-protein kinase BRSK2 (Homo sapiens) (UniProt Q8IWQ3); test: activity of BrSK2(h) at 1.0 µM in the Eurofins Kinase panel; conditions: Compound concentration 1.0 uM
[16] = target: G protein-coupled receptor kinase 5 (Homo sapiens) (UniProt P34947); test: activity of GRK5(h) at 1.0 µM in the Eurofins Kinase panel; conditions: Compound concentration 1.0 uM
[17] = target: Wee1-like protein kinase 2 (Homo sapiens) (UniProt P0C1S8); test: activity of Wee1B(h) at 1.0 µM in the Eurofins Kinase panel; conditions: Compound concentration 1.0 uM
[18] = target: Bone morphogenetic protein receptor type-1B (Homo sapiens) (UniProt O00238); test: activity of ALK6(h) at 1.0 µM in the Eurofins Kinase panel; conditions: Compound concentration 1.0 uM
[19] = target: Ribosomal protein S6 kinase alpha-3 (Homo sapiens) (UniProt P51812); test: activity of Rsk2(h) at 1.0 µM in the Eurofins Kinase panel; conditions: Compound concentration 1.0 uM
[20] = target: Mitogen-activated protein kinase 11 (Homo sapiens) (UniProt Q15759); test: activity of SAPK2b(h) at 1.0 µM in the Eurofins Kinase panel; conditions: Compound concentration 1.0 uM
[21] = target: Cyclin-dependent kinase 5/CDK5 activator 1 (Homo sapiens) (UniProt Q00535+Q15078); test: activity of CDK5/p25(h) at 1.0 µM in the Eurofins Kinase panel; type: protein-complex assay; conditions: Compound concentration 1.0 uM
[22] = target: Aurora kinase A (Homo sapiens) (UniProt O14965); test: activity of Aurora-A(h) at 1.0 µM in the Eurofins Kinase panel; conditions: Compound concentration 1.0 uM
[23] = target: 5'-AMP-activated protein kinase catalytic subunit alpha-1 (Homo sapiens) (UniProt Q13131); test: activity of AMPKalpha1(h) at 1.0 µM in the Eurofins Kinase panel; conditions: Compound concentration 1.0 uM
[24] = target: Protein kinase C beta type (Homo sapiens) (UniProt P05771); test: activity of PKCbetaII(h) at 1.0 µM in the Eurofins Kinase panel; conditions: Compound concentration 1.0 uM
[25] = target: Cyclin-dependent kinase-like 2 (Homo sapiens) (UniProt Q92772); test: activity of CDKL2(h) at 1.0 µM in the Eurofins Kinase panel; conditions: Compound concentration 1.0 uM
[26] = target: Casein kinase II subunit alpha (Homo sapiens) (UniProt P68400); test: activity of CK2alpha1(h) at 1.0 µM in the Eurofins Kinase panel; conditions: Compound concentration 1.0 uM
[27] = target: Tyrosine-protein kinase Tec (Homo sapiens) (UniProt P42680); test: activity of Tec(h) activated at 1.0 µM in the Eurofins Kinase panel; conditions: Compound concentration 1.0 uM
[28] = target: Activin receptor type-1 (Homo sapiens) (UniProt Q04771); test: activity of ALK2(h) at 1.0 µM in the Eurofins Kinase panel; conditions: Compound concentration 1.0 uM
[29] = target: Insulin receptor-related protein (Homo sapiens) (UniProt P14616); test: activity of IRR(h) at 1.0 µM in the Eurofins Kinase panel; conditions: Compound concentration 1.0 uM
[30] = target: Tyrosine-protein kinase Srms (Homo sapiens) (UniProt Q9H3Y6); test: activity of SRMS(h) at 1.0 µM in the Eurofins Kinase panel; conditions: Compound concentration 1.0 uM
[31] = target: Beta-adrenergic receptor kinase 1 (Homo sapiens) (UniProt P25098); test: activity of GRK2(h) at 1.0 µM in the Eurofins Kinase panel; conditions: Compound concentration 1.0 uM
[32] = target: BDNF/NT-3 growth factors receptor (Homo sapiens) (UniProt Q16620); test: activity of TrkB(h) at 1.0 µM in the Eurofins Kinase panel; conditions: Compound concentration 1.0 uM
[33] = target: Citron Rho-interacting kinase (Homo sapiens, UniProt O14578); test: NanoLuc NanoBRET (CITKD); conditions: read-out: Kd
[34] = target: Serine/threonine-protein kinase B-raf (Homo sapiens) (UniProt P15056); test: activity of B-Raf(h) at 1.0 µM in the Eurofins Kinase panel; conditions: Compound concentration 1.0 uM
[35] = target: Leukocyte tyrosine kinase receptor (Homo sapiens) (UniProt P29376); test: activity of LTK(h) at 1.0 µM in the Eurofins Kinase panel; conditions: Compound concentration 1.0 uM
[36] = target: Phosphatidylinositol 4-phosphate 5-kinase type-1 alpha (Homo sapiens) (UniProt Q99755); test: activity of PIP5K1alpha(h) at 1.0 µM in the Eurofins Kinase panel; conditions: Compound concentration 1.0 uM
[37] = target: Dual specificity protein kinase CLK3 (Homo sapiens) (UniProt P49761); test: activity of CLK3(h) at 1.0 µM in the Eurofins Kinase panel; conditions: Compound concentration 1.0 uM
[38] = target: Death-associated protein kinase 1 (Homo sapiens) (UniProt P53355); test: activity of DAPK1(h) at 1.0 µM in the Eurofins Kinase panel; conditions: Compound concentration 1.0 uM
[39] = species on record: Homo sapiens; test: activity of MAPK2(h) at 1.0 µM in the Eurofins Kinase panel; conditions: Compound concentration 1.0 uM
[40] = target: Serine/threonine-protein kinase MRCK alpha (Homo sapiens) (UniProt Q5VT25); test: activity of MRCKalpha(h) at 1.0 µM in the Eurofins Kinase panel; conditions: Compound concentration 1.0 uM

Death-associated protein kinase 1 (Homo sapiens), sequence (P53355 whole entry, looked up): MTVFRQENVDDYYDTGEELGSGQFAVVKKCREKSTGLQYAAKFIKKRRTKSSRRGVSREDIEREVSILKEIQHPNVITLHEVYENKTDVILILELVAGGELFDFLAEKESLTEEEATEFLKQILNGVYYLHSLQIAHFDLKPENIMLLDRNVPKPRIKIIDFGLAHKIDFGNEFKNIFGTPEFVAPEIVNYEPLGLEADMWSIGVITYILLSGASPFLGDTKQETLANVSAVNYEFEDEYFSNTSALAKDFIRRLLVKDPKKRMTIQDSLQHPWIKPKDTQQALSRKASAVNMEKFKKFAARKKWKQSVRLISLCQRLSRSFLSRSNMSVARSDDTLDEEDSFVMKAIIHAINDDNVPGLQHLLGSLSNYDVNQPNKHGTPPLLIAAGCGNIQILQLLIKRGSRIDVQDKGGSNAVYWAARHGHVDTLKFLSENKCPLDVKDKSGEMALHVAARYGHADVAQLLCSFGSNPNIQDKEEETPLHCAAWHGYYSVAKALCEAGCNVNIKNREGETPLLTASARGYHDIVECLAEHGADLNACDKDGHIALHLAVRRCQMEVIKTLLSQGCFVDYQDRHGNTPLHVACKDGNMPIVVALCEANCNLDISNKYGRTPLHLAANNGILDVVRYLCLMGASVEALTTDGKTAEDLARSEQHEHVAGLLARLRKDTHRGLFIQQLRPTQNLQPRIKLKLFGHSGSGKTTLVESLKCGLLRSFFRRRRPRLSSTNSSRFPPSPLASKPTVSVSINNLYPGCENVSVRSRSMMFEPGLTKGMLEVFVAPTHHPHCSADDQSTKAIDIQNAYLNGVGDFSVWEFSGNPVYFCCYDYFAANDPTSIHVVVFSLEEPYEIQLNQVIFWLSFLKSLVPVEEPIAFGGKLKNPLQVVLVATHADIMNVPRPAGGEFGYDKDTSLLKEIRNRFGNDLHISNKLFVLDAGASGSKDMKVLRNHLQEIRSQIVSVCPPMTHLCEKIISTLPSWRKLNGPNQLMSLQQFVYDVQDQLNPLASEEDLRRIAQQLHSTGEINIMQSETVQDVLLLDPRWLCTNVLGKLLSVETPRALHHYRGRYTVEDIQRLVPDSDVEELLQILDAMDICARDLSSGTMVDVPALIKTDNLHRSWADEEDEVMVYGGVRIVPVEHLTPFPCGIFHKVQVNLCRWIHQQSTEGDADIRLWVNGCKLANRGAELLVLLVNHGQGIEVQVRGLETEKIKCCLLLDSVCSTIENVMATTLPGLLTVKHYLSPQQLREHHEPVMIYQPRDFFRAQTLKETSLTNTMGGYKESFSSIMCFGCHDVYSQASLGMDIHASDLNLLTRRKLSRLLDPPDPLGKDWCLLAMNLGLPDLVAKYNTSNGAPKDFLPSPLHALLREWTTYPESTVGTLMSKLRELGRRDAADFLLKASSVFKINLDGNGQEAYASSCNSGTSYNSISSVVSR
Serine/threonine-protein kinase A-Raf (Homo sapiens), sequence (P10398 whole entry): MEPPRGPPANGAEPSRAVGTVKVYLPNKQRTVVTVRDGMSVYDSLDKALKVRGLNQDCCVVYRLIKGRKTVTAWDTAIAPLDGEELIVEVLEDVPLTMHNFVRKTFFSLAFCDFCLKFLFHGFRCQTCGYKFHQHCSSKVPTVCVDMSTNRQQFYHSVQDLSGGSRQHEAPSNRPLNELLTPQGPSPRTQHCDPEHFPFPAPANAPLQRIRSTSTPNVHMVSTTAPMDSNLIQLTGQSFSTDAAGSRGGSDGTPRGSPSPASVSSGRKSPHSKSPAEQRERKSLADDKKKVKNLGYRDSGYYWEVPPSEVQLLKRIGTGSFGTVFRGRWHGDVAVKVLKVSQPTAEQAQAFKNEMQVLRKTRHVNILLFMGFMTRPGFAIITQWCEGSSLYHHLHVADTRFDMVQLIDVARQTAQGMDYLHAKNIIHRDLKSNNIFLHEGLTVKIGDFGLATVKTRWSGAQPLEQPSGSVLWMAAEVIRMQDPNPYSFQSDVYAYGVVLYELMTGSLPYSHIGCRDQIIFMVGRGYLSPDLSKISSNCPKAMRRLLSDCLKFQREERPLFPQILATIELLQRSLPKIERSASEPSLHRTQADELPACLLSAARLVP
BDNF/NT-3 growth factors receptor (Homo sapiens), sequence (Q16620 32-822 limits assumed): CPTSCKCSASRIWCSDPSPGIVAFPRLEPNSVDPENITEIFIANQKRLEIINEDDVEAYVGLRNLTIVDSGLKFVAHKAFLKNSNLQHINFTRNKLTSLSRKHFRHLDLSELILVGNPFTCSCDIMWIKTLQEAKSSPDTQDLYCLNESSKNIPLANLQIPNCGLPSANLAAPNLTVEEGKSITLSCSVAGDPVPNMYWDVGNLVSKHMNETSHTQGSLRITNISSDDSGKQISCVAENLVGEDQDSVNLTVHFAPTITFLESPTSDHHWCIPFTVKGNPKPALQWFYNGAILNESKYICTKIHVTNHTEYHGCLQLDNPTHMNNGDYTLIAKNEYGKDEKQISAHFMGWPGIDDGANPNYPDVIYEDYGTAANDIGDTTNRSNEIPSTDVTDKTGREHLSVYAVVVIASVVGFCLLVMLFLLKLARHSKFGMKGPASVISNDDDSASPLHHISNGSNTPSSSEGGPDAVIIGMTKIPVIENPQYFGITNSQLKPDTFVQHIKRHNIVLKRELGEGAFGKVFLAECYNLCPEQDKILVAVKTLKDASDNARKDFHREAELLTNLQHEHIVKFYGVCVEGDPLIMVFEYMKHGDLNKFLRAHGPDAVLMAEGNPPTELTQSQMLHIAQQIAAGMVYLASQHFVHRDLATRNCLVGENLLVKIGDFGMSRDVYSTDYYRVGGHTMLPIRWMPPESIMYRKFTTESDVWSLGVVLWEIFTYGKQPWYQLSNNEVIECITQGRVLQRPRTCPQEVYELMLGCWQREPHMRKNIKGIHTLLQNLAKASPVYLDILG
Casein kinase II subunit alpha (Homo sapiens), sequence (P68400 whole entry, looked up): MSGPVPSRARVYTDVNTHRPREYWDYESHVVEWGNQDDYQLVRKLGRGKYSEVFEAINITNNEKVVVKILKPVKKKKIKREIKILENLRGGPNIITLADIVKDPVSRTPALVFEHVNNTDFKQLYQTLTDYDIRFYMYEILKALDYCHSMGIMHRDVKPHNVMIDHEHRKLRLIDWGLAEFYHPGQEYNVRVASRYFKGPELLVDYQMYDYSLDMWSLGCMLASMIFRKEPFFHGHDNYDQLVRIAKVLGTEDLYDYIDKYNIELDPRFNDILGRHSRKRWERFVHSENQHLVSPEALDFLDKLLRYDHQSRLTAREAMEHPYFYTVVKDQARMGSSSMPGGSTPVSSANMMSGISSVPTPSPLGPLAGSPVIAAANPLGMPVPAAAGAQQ
CDC7/Cyclin B1 (Homo sapiens), sequence (O00311 whole entry, looked up): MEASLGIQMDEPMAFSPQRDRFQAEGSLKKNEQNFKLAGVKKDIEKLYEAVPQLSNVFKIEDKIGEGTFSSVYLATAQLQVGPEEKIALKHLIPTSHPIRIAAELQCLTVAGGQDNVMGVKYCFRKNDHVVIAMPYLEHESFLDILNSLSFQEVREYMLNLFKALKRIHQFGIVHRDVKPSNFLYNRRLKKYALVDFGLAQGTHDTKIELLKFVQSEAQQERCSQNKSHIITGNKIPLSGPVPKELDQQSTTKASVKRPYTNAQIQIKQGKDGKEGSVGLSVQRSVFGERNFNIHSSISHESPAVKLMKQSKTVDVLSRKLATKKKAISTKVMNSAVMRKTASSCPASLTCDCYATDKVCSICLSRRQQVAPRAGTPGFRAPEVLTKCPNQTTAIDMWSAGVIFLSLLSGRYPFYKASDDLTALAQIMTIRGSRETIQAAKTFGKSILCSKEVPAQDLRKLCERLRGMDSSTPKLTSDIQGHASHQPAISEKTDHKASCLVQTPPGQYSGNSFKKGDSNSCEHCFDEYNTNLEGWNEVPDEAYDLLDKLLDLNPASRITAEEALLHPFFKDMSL
CDC7/Cyclin B1 (Homo sapiens), sequence (P14635 whole entry, looked up): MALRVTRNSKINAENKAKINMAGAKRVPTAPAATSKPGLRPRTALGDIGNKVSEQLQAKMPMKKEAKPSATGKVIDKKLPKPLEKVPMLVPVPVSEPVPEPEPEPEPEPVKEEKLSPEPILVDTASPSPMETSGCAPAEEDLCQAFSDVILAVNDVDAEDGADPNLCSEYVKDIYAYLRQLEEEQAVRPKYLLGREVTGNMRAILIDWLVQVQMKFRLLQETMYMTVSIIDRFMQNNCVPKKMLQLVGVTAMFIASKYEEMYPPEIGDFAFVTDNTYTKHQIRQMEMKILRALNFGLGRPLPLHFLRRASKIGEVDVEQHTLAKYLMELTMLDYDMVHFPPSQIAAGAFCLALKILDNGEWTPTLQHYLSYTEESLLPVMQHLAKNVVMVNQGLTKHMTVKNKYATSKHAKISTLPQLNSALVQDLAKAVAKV
Tyrosine-protein kinase Tec (Homo sapiens), sequence (P42680 whole entry): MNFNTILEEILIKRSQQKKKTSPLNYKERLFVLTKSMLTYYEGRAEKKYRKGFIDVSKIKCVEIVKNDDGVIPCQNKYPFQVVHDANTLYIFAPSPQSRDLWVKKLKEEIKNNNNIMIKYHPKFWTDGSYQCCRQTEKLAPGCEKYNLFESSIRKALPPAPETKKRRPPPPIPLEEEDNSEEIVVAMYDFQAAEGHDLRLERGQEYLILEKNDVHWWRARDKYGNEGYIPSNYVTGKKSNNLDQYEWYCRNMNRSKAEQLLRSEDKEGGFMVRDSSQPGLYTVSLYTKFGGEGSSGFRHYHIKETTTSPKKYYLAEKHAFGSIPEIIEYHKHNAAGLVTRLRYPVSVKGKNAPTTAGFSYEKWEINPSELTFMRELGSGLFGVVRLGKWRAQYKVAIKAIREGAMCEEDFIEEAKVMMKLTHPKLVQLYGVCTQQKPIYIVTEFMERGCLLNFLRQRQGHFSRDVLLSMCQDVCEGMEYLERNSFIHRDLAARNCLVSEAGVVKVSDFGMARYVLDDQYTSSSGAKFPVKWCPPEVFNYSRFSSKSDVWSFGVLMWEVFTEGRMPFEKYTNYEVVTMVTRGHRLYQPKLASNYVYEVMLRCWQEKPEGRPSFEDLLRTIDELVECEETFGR

activity [1]: 115%
activity [2]: 92%
activity [3]: 100%
activity [4]: 96%
activity [5]: 88%
activity [6]: 94%
activity [7]: 104%
activity [8]: 76%
activity [9]: 87%
activity [10]: 75%
activity [11]: 102%
activity [12]: 97%
activity [13]: 81%
activity [14]: 100%
activity [15]: 83%
activity [16]: 97%
activity [17]: 88%
activity [18]: 74%
activity [19]: 88%
activity [20]: 90%
activity [21]: 72%
activity [22]: 97%
activity [23]: 120%
activity [24]: 87%
activity [25]: 80%
activity [26]: 112%
activity [27]: 126%
activity [28]: 122%
activity [29]: 110%
activity [30]: 86%
activity [31]: 95%
activity [32]: 84%
Kd [33]: 0.3 nM (active)
activity [34]: 110%
activity [35]: 97%
activity [36]: 103%
activity [37]: 107%
activity [39]: 109%
activity [40]: 94%
SMILES: Cc1cc2c(-c3ccc(NC(=O)[C@H](N)CC(C)(C)C)cc3C)ccnc2[nH]1
activity [38]: 82%
